Experimental data from US10829487B2, “Benzylamino substituted pyridopyrimidinones and derivatives as SOS1 inhibitors” (Boehringer Ingelheim International GmbH, priority 2017, dated 2020).

What was measured:
[1] = target: protein-protein interaction between SOS1 and KRAS G12D (Homo sapiens (Human), UniProt Q07889); assay: KRAS::SOS1 AlphaScreen Binding Assay
Summary of the method: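 Nucleotide-exchange interaction read by AlphaScreen (GSH acceptor / streptavidin donor beads, 10 μg/mL each): 10 nM KRAS G12D(1-169)-Avi, 10 μM GDP, 5 nM GST-SOS1(564-1049), 1% DMSO. Compound preincubated 30 min, then beads 60 min at RT in the dark; 11-point 1:5 series from 100 μM, duplicates; IC50 by 4-parameter logistic fit.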

[2] = Metabolic (microsomal) stability assay, mouse liver microsomes (MLM); assay type: in vitro ADME; conditions: 1 μM test compound, 37° C.
Description: (§1) Metabolic (Microsomal) Stability Assay: The metabolic degradation of the test compound is assayed at 37° C. with pooled liver microsomes (mouse (MLM), rat (RLM) or human (HLM)). The final incubation volume of 74 μL per time point contains TRIS buffer (pH 7.5; 0.1 M), magnesium chloride (6.5 mM), microsomal protein (0.5 mg/mL for mouse/rat, 1 mg/mL for human specimens) and the test compound at a final concentration of 1 μM. Following a short preincubation period at 37° C., the reactions are initiated by addition of 8 μL beta-nicotinamide adenine dinucleotide phosphate, reduced form (NADPH, 10 mM) and terminated by transfering an aliquot into solvent after different time points. Additionally, the NADPH-independent degradation is monitored in incubations without NADPH, terminated at the last time point by addition of acetonitrile. The quenched incubations are pelleted by centrifugation (1811 g, 5 min). An aliquot of the supernatant is assayed by LC-MS/MS for the amount of parent compound. In vitro intrinsic clearance (CLint, in vitro) is calculated from the time course of the disappearance of the test drug during the microsomal incubation. Each plot is fitted to the first-order elimination rate constant as C(t)=C0*exp(−ke*t), where C(t) and C0 are the concentration of unchanged test drug at incubation time t and that at preincubation and ke is the disappearance rate constant of the unchanged drug. Subsequently, CLint, in vitro (μL min^−1·amount protein) values are converted to CLint, in vitro (mL min^−1·kg^−1) for the whole body. CLint, in vitro data are scaled up using physiological parameters. For better across species comparison the predicted clearance is expressed as percent of the liver blood flow [% QH] in the individual species. In general, high stability (corresponding to low % QH) of the compounds across species is desired.

[3] = Metabolic (microsomal) stability assay, rat liver microsomes (RLM); assay type: in vitro ADME; conditions: 1 μM test compound, 37° C.
Description: as §1

[4] = Metabolic (microsomal) stability assay, human liver microsomes (HLM); assay type: in vitro ADME; conditions: 1 μM test compound, 37° C.
Description: as §1

CYP3A4 = CYP3A4 (Homo sapiens (Human), UniProt P08684); assay: Time dependent inhibition of CYP3A4 assay (TDI 3A4); assay type: in vitro ADME; conditions: hydroxy-midazolam formation after 30 min relative to 0 min preincubation; 25 uM compound; human liver microsomes; midazolam substrate
Description: Time Dependent Inhibition of CYP3A4 Assay (TDI 3A4):
After preincubation, the incubate is diluted 1:10 and the substrate midazolam is added for the main incubation (15 min). The main incubation is quenched with acetonitrile and the formation of hydroxy-midazolam is quantified via LC/MS-MS. The formation of hydroxy-midazolam from the 30 min preincubation relative to the formation from the 0 min preincubation is used as a readout. Values of less than 100% mean that the substrate midazolam is metabolized to a lower extend upon 30 min preincubation compared to 0 min preincubation. In general low effects upon 30 min preincubation are desired (corresponding to values close to 100%)

[5] = test system: ERK phosphorylation in DLD-1 cells (KRAS G13D); assay: ERK Phosphorylation Assay (AlphaLISA SureFire Ultra p-ERK1/2); assay type: cell-based; conditions: Homo sapiens, 1 h compound, EGF 50 ng/mL 10 min, read-out: pERK
Description: ERK Phosphorylation Assay
Low IC50 values are indicative of high potency of the SOS1 inhibitor compounds in this assay setting.
ERK phosphorylation assays are performed using the following human cell lines: DLD-1 (ATCC CCL-221): human colon cancer with a KRAS G13D mutation;
DLD-1 cells (ATCC CCL-221) are seeded at 50,000 cells per well in/60 μL of RPMI with 10% FBS, non-essential amino acids, pyruvate and glutamax in Greiner TC 384 plates. The cells are incubated for 1 h at room temperature and then incubated overnight in an incubator at 37° C. and 5% CO2 in a humidified atmosphere. 60 nL compound solution (10 mM DMSO stock solution) is then added using a Labcyte Echo 550 device. After a 1 h incubation in the aforementioned incubator, 3 μL Epidermal Growth Factor (EGF, final concentration 50 ng/mL) is added. 10 minutes later the medium is removed, and the cells lysed by addition of 20 μL of 1.6-fold lysis buffer from the AlphaLISA SureFire Ultra pERK1/2 (Thr202/Tyr204) Assay Kit with added protease inhibitors, 100 nM trametinib+100 nM staurosporine. After 20 minutes of incubation at room temperature with shaking, 6 μL of each lysate sample is transferred to a 384-well Proxiplate and analyzed for pERK (Thr202/Tyr204) with the AlphaLISA SureFire Ultra pERK1/2 (Thr202/Tyr204) Assay Kit. 3 μL Acceptor Mix and 3 μL Donor Mix are added under subdued light and incubated for 2 h at room temperature in the dark, before the signal is measured on a Perkin Elmer Envision plate reader using 384 AlphaScreen settings for Proxiplates. Data are fitted by iterative calculation with variable hill slope. The sigmoidal curve slope is fitted using a default fitting curve to ascertain IC50 values.

[6] = KRAS G12D::SOS1 AlphaScreen, measured without EDTA unless marked with an asterisk
[7] = Table 20, KRAS::SOS1 AlphaScreen (SOS1 / KRAS G12D)

CYP3A4, sequence (P08684 whole entry): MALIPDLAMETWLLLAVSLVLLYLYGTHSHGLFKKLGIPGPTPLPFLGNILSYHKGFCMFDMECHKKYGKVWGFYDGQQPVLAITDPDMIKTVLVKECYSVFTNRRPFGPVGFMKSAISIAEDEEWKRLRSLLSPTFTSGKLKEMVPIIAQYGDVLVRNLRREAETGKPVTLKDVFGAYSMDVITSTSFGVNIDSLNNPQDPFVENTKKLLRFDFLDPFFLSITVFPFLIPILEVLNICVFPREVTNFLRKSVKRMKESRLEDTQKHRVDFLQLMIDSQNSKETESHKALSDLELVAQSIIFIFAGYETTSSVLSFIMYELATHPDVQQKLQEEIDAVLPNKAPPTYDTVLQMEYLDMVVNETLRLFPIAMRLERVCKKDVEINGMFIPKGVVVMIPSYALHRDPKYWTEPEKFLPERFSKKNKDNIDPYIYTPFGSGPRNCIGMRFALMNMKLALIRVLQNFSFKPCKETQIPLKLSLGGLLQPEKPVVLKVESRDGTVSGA
protein-protein interaction between SOS1 and KRAS G12D, sequence (Q07889 564-1049, stated change not applied): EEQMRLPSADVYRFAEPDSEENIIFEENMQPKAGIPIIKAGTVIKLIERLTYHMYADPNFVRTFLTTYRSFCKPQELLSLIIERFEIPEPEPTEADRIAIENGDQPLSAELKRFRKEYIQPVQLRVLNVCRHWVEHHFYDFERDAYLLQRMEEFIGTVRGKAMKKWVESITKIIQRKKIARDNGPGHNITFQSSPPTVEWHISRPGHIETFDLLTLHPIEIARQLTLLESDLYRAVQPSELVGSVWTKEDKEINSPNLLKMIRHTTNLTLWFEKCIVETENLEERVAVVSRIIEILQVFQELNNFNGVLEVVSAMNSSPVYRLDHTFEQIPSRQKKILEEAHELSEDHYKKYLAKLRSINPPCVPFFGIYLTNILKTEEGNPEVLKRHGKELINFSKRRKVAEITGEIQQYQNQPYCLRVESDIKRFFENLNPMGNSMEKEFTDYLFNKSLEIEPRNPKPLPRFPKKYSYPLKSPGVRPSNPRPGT

| SMILES | IC50 [1, 6] [nM] | MLM [% QH] [2] [% QH] | RLM [% QH] [3] [% QH] | HLM [% QH] [4] [% QH] | TDI 3A4 [%] (CYP3A4) | IC50 [1, 7] [nM] | IC50 [5] [nM] |
| --- | --- | --- | --- | --- | --- | --- | --- |
| Cc1c(=O)n(C23CC(C2)C3)cc2c(N[C@H](C)c3cccc(C(F)F)c3F)ncnc12 [I-169] | 12 | 64 | 44 | <24 | 84 | – | – |
| Cc1nc(N[C@H](C)c2cccc(C(F)F)c2F)c2cn(C3(CF)CC3)c(=O)c(F)c2n1 [I-81] | – | 64 | <23 | <24 | 85 | 6 | – |
| Cc1nc(N[C@H](C)c2cccc(C(F)(F)F)c2)c2cn(C3(C)CC3)c(=O)cc2n1 [I-25] | – | <24 | <23 | <24 | 90 | 13 | – |
| Cc1nc(N[C@H](C)c2cccc(C(F)(F)F)c2F)c2cn(C3(C(F)F)CC3)c(=O)cc2n1 [I-98] | – | <24 | <23 | <24 | 85 | 8 | – |
| Cc1nc(N[C@H](C)c2cccc(C(C)(F)F)c2F)c2cn(C3(C(F)F)CC3)c(=O)cc2n1 [I-54] | – | 55 | <23 | <24 | 84 | 5 | – |
| Cc1c(=O)n([C@@H]2C[C@H]2C(F)F)cc2c(N[C@H](C)c3cccc(C(F)F)c3F)ncnc12 [I-166] | 26 | 48 | 38 | 24 | 87 | – | – |
| Cc1nc(N[C@H](C)c2cccc(C(C)(F)F)c2)c2cn(C3(C)CC3)c(=O)cc2n1 [I-50] | – | <24 | <23 | <24 | 82 | 9 | – |
| Cc1nc(N[C@H](C)c2cccc(C(C)(F)F)c2F)c2cn(C3(CF)CC3)c(=O)c(F)c2n1 [I-87] | – | – | – | – | 81 | 4 | 100 |
| Cc1nc(N[C@H](C)c2cccc(C(F)F)c2C)c2cn(C3(C)CCOC3)c(=O)cc2n1 (stereo partly drawn) [I-123] | 3 | – | – | – | 87 | – | 118 |
| Cc1nc(N[C@H](C)c2cccc(C(F)(F)F)c2C)c2cn(C3CCOCC3)c(=O)cc2n1 [I-49] | – | – | – | – | 92 | 6 | 81 |
| Cc1nc(N[C@H](C)c2cccc(C(F)(F)F)c2C)c2cn(C3(C)CCOC3)c(=O)cc2n1 (stereo partly drawn) [I-126] | 5 | – | – | – | 88 | – | 51 |
| Cc1nc(N[C@H](C)c2cccc(C(C)(F)F)c2F)c2cn(C3(CF)CC3)c(=O)cc2n1 [I-53] | – | – | – | – | 84 | 4 | 74 |
| Cc1c(=O)n(C23CC(F)(C2)C3)cc2c(N[C@H](C)c3cccc(C(F)F)c3F)ncnc12 [I-170] | 12 | 51 | 37 | <24 | 82 | – | – |
| Cc1nc(N[C@H](C)c2cccc(C(F)F)c2F)c2cn(C3(C)CC3)c(=O)c(F)c2n1 [I-80] | – | 50 | <23 | <24 | 86 | 9 | – |
